Columns and labels:
Δ42-DOT1A [1] = target: T1, Δ42-DOT1A (Trypanosoma brucei, UniProt Q581Z0); test: X-ray crystal structure of the complex ([…] and […] Å); type: binding; parameters: residues 43-295, E. coli, His6-tag cut with PreScission; details: active site; co-crystallised with twofold molar excess
full-length DOT1A = target: T2, full-length DOT1A (Trypanosoma brucei, UniProt Q581Z0); test: 3H-methyl incorporation into nucleosome; quantitative MS of H3K76; type: biochemical; details: co-substrate T. brucei nucleosome, pH 8.5, 25 °C; labelled compound
T2 construct: full length (295 residues), Sf9 cells, His6-tag cut with PreScission
T2 sequence (Q581Z0 1-295): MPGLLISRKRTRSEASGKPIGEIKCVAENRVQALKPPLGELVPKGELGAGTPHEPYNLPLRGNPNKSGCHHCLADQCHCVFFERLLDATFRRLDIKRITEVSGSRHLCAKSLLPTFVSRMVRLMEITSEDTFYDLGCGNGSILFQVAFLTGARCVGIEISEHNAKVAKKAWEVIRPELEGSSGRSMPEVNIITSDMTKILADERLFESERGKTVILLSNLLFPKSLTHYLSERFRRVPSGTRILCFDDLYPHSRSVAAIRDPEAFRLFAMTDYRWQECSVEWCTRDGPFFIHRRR

Δ42-DOT1A [2] = target: T1, Δ42-DOT1A; details: pH 8.5, on ice, 254 nm 1 h; covalent photo-cross-link; labelled compound
Δ27-DOT1B = Δ27-DOT1B (Trypanosoma brucei, UniProt Q4GZF2); details: co-substrate T. brucei nucleosome, pH 8.5, 25 °C; labelled compound
Δ42-DOT1A [3] = target: T3, Δ42-DOT1A (Trypanosoma brucei strain Lister 427, UniProt Q581Z0 43-295); test: fluorescence polarization; not detectable; n = 1; FP: 5 nM probe, 100 mM NaCl, 20 mM Tris-HCl pH 7.5, 5% glycerol, 0.5 mM TCEP, 25 °C, 10 min; footprinting at ambient temperature; details: protein: recombinant; tags: His6 cleaved (PreScission); label: 5'-FAM on strand 1; 5' overhang 2 nt (CC) on strand 2
T3 sequence: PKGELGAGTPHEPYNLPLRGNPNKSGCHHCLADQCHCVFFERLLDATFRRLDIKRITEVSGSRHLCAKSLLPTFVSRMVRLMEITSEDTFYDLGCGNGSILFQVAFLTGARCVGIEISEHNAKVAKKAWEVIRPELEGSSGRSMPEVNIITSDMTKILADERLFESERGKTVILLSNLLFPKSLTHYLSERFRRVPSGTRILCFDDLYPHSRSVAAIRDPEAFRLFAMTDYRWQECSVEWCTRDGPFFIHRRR

DOT1A full-length = target: T4, DOT1A full-length (Trypanosoma brucei strain Lister 427, UniProt Q581Z0 1-295); test: fluorescence polarization; n = 1; FP: 5 nM probe, 100 mM NaCl, 20 mM Tris-HCl pH 7.5, 5% glycerol, 0.5 mM TCEP, 25 °C, 10 min; footprinting at ambient temperature; details: protein: recombinant; tags: His6 cleaved (PreScission); label: 5'-FAM on strand 1; 5' overhang 2 nt (CC) on strand 2
T4 sequence: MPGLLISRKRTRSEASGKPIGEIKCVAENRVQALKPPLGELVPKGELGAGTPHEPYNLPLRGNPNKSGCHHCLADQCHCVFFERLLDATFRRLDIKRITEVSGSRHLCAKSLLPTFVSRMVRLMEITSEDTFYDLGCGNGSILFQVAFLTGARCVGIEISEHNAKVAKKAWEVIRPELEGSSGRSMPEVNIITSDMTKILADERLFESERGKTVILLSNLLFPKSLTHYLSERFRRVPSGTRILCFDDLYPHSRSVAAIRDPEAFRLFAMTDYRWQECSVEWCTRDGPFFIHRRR

DOT1L (1-420) = DOT1L (1-420) (human, UniProt Q8TEK3 1-420); test: fluorescence polarization; n = 2; FP: 5 nM probe, 100 mM NaCl, 20 mM Tris-HCl pH 7.5, 5% glycerol, 0.5 mM TCEP, 25 °C, 10 min; footprinting at ambient temperature; details: protein: recombinant; tags: His6 cleaved (PreScission); label: 5'-FAM on strand 1; 5' overhang 2 nt (CC) on strand 2
Chain of DOT1L (1-420) (Q8TEK3 1-420): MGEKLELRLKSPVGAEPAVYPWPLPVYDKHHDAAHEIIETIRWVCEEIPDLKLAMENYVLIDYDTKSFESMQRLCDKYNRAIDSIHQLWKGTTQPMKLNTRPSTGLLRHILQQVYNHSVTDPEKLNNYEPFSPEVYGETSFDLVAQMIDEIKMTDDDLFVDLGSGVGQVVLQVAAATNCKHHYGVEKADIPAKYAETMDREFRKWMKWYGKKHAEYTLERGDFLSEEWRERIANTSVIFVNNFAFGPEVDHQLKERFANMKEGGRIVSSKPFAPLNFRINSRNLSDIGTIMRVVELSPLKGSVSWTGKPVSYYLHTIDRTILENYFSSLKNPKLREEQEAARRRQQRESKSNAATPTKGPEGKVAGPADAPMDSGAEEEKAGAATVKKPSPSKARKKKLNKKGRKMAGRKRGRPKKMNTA

Chain of Δ27-DOT1B (Q4GZF2 entry or part of it, stated change not applied): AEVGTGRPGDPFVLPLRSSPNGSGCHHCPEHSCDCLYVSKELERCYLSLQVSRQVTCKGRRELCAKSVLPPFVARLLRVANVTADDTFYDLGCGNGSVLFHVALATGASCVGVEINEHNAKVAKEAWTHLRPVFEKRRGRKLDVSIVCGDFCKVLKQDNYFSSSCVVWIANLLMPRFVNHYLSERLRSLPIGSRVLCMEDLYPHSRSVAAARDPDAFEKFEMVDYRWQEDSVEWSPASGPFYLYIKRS

## Nc1ncnc2c1ncn2[C@@H]1O[C@H](CSCC[C@H](N)C(=O)O)[C@@H](O)[C@H]1O [AdoHcy]
Δ42-DOT1A [1]
  X-ray crystal structure of the complex (2.1 and 1.9 Å): Δ42-DOT1A crystallized in complex with the methyl donor product AdoHcy in two different crystal forms

## C[S+](CC[C@H](N)C(=O)O)C[C@H]1O[C@@H](n2cnc3c(N)ncnc32)[C@H](O)[C@@H]1O (stereo partly shown) [AdoMet]
full-length DOT1A
  3H-methyl incorporation into nucleosome; quantitative MS of H3K76: Methyltransferase activity of full-length DOT1A, Δ42-DOT1A, and Δ27-DOT1B toward the recombinant T. brucei nucleosome
Δ42-DOT1A [2]
  UV cross-linking of [methyl-3H]AdoMet, SDS-PAGE fluorography: AdoMet binding analyzed by cross-linking experiments showing Coomassie stain (middle) and fluorography (bottom)
Δ27-DOT1B
  3H-methyl incorporation into nucleosome; quantitative MS of H3K76: Δ27-DOT1B showed significant methyltransferase activity by measuring tritium incorporation from [methyl-^3H] AdoMet in vitro

B1: FAM-dsDNA probe (dsDNA)
DNA 1: CTACAGTTCGTCAGGATTCC
DNA 2: CCGGAATCCTGACGAACTGTAG
Δ42-DOT1A [3]
  binding result: no binding
DOT1A full-length
  Kd: 900 ± 200 nM
DOT1L (1-420)
  Kd: 110 ± 20 nM

— PMC10951340, “Two DOT1 enzymes cooperatively mediate efficient ubiquitin-independent histone H3 lysine 76 tri-methylation in kinetoplastids” (Nature Communications, 2024)
